Assays:
[1] = tested on: high molecular weight DNA in gill tissue of Mytilus edulis; experiment: Preservation of high molecular weight DNA in stored tissue, TapeStation % R and nY; details: M. edulis, 3 months, room temperature
Method: (§1) To evaluate the contributions of the three components of DESS to DNA preservation in tissues, DNA quality was compared among extracts of tissues from three aquatic invertebrate taxa preserved for various time intervals in DESS or one of six DESS-variant solutions in a full factorial design. Each of these six variants contained either one of the three components of DESS individually or one of the three possible pairwise combinations of two DESS components. […] All solutions were prepared at room temperature (22-24° C.) using distilled deionized water as the diluent.
(§2) Live specimens of M. edulis and F. virilis were stored on ice and live A. virens were stored at 4° C. prior to dissection. Gill, abdominal muscle and body tissue samples were collected immediately after euthanasia from specimens of M. edulis, F. virilis, and A. virens, respectively. […] DNA was extracted from the ninth subsample, hereafter referred to as fresh tissue, immediately after dissection without preservation. […] Seven specimens of M. edulis, seven specimens of F. virilis and ten specimens of A. virens were assigned to each time interval for a total of 35 M. edulis, 35 F. virilis and 50 A. virens.
(§3) After the assigned storage interval, each tissue sample was removed from its storage solution and reweighed. […] To control for changes in tissue weight during storage, a correction ratio was calculated by dividing the tissue weight prior to storage by the post storage weight. Each extract subsample weight was then multiplied by the correction ratio to estimate the fresh tissue weight equivalent for that subsample. These values were then used to calculate normalized yield (see statistical analysis). DNA was extracted from tissues using the DNeasy Blood and Tissue Kit (Qiagen; Hilden, Germany) following the manufacturers recommended protocol with tissues digested overnight and DNA eluted by adding two sequential 50 μl volumes of Buffer AE for a total elution volume of 100 μl. […]

[2] = tested on: high molecular weight DNA in body tissue of Alitta virens; experiment: as above; details: A. virens, 3 months, room temperature
Method: as §1, §2, §3

[3] = tested on: high molecular weight DNA in tissues of Alitta virens; experiment: pH study: tissue stored 1 year in EDTA solutions at pH 8.0, 9.0, 10.0; details: A. virens, one year of storage, room temperature
Source text: The tissues of 5 species of aquatic animals were stored in the resulting solutions at room temperature for periods ranging from 6 weeks to 12 months.

[4] = tested on: high molecular weight DNA in tissues of Mytilus edulis, Faxonius virilis and Alitta virens; experiment: Qualitative DNA fragment length distribution by agarose gel electrophoresis, several taxa; details: M. edulis and F. virilis, 6 months, room temperature
Method: as §2

[5] = tested on: high molecular weight DNA in tissues of Mytilus edulis, Faxonius virilis and Alitta virens; experiment: Preservation of high molecular weight DNA in stored tissue, TapeStation % R and nY, statements covering several taxa; details: M. edulis and F. virilis, 3 months
Method: as §1
Live specimens of M. edulis and F. virilis were stored on ice and live A. virens were stored at 4° C. prior to dissection. Gill, abdominal muscle and body tissue samples were collected immediately after euthanasia from specimens of M. edulis, F. virilis, and A. virens, respectively. […] DNA was extracted from the ninth subsample, hereafter referred to as fresh tissue, immediately after dissection without preservation. […]
After the assigned storage interval, each tissue sample was removed from its storage solution and reweighed. […] To control for changes in tissue weight during storage, a correction ratio was calculated by dividing the tissue weight prior to storage by the post storage weight. […]

rat = details: oral; cited from earlier work

| Structure (SMILES) | percent high molecular weight DNA recovered (% R), average [1] [%] | normalized high molecular weight DNA yield (nY) [2] | percent high molecular weight DNA recovered (% R) [2] | high molecular weight DNA yielded [3] | high molecular weight DNA visualized by agarose gel electrophoresis [4] | normalized high molecular weight DNA yield (nY) [5] | percent high molecular weight DNA recovered (% R) [5] | LD50 (rat) |
| --- | --- | --- | --- | --- | --- | --- | --- | --- |
| CCO [EtOH, ethanol] | 15.37 | performed significantly better than tissues preserved in DE, DSS, D and E | performed significantly better than tissues preserved in DE, DSS, D and E | little or no high molecular weight DNA | evident | equal to or significantly greater than fresh tissues | equal to or significantly greater than fresh tissues |  |
| [Cl-].[Na+] [NaCl, sodium chloride] |  |  |  |  |  |  |  | 3,000 mg/kg |
